# Measured values as given in BindingDB's records for patent US11993596 (Chia Tai Tianqing Pharmaceutical Group, 2024).
# Molecular target: T1, 3',5'-cyclic-AMP phosphodiesterase 4B (Homo sapiens, UniProt Q07343)
# T1 construct: gene PDE4B
# Assay: In Vitro Detection of the Inhibitory Activity of Compounds Against PDE 4B Enzyme
# Protocol: The recombinant human PDE4B enzyme and enzyme substrate (1 μM cAMP) were each dissolved in newly prepared experimental buffer solution;2. The PDE4B enzyme buffer solution was transferred into reaction wells;3. The compound which was dissolved in 100% DMSO was added to the reaction wells containing PDE4B enzyme buffer solution by acoustic technique (echo 550; […]) and the mixture was incubated for 10 minutes at room temperature;4. The enzyme substrate buffer solution was added to the above reaction wells to initiate reaction;5. The resulting mixture was incubated at room temperature for 1 hour;6. The detection mixture (Transcreener AMP2/GMP2 antibody and AMP2/GMP2 AlexaFluor633 tracer) was added to stop the reaction, and the resulting mixture was incubated for 90 minutes while slowly mixing.
# T1 sequence (Q07343 whole entry, looked up): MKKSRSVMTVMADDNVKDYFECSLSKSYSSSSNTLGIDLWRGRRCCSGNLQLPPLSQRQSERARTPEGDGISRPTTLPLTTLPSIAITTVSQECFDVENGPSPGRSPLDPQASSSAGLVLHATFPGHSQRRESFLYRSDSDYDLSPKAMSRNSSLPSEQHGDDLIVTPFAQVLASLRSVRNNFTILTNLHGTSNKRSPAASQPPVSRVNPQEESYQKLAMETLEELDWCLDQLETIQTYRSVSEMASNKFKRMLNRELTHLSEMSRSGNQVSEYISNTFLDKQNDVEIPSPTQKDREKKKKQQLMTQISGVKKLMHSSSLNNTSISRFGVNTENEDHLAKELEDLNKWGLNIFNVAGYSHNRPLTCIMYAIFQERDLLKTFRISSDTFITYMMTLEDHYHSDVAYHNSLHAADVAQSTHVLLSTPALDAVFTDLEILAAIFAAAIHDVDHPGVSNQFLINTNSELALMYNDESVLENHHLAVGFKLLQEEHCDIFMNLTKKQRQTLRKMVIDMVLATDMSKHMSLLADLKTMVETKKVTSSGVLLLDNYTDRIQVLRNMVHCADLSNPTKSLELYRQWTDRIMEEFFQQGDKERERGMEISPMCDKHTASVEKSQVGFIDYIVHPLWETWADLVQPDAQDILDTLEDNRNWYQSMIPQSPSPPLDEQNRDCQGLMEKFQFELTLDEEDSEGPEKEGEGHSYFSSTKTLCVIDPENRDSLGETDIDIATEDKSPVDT
row,IC50,SMILES
1,6.5 nM,"CCOc1cc2c(cc1OC)-c1c/c(=N\c3c(C)cc(C)cc3C)n(CCN3CCOC3=O)c(=O)n1CC2 [US11993596, Compound WX001]"
2,2.2 nM,"CCOc1cc2c(cc1OC)-c1c/c(=N\c3c(C)cc(C)cc3C)n(CCNc3nc[nH]n3)c(=O)n1CC2 [US11993596, Compound WX003]"
3,5.7 nM,"CCOc1cc2c(cc1OC)-c1c/c(=N\c3c(C)cc(C)cc3C)n(CCNc3nncs3)c(=O)n1CC2 [US11993596, Compound WX005]"
4,0.56 nM,"CCOc1cc2c(cc1OC)-c1c/c(=N\c3c(C)cc(C)cc3C)n(CCNC(=O)c3nnc[nH]3)c(=O)n1CC2 [US11993596, Compound WX015]"
5,2.7 nM,"CCOc1cc2c(cc1OC)-c1c/c(=N\c3c(C)cc(C)cc3C)n(CCC(=O)Nc3nnc[nH]3)c(=O)n1CC2 [US11993596, Compound WX054]"

row,SMILES,IC50
1,"CCOc1cc2c(cc1OC)-c1c/c(=N\c3c(C)cc(C)cc3C)n(CCN(O)C(=O)c3cnn[nH]3)c(=O)n1CC2 [US11993596, Compound WX064]",1.4 nM
